Source: the supplement of paper PMC10307832

Key:
Assay in all cases: relative viability (nuclei count vs DMSO), 5 days (fraction); higher = more cells survive
201T = system: 201T
Procedure, shortened: (§1)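 Relative viability equals treated-well nuclei counts divided by vehicle-well nuclei counts. Counts came from 4× images of lung cancer cell lines grown in 1536-well plates for 5 days after pin-tool dosing on the day after seeding. Dosing used one drug alone or a fixed anchor-drug dose plus five library-drug doses (not always all listed) in √10 steps, and values are medians of duplicate plates.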

COR-L23 = system: COR-L23
Procedure, shortened: as §1

EPLC-272H = system: EPLC-272H
Procedure, shortened: as §1

H3255 = system: H3255
Procedure, shortened: as §1

HCC-15 = system: HCC-15
Procedure, shortened: as §1

LOU-NH91 = system: LOU-NH91
Procedure, shortened: as §1

NCI-H1650 = system: NCI-H1650
Procedure, shortened: as §1

NCI-H1734 = system: NCI-H1734
Procedure, shortened: as §1

NCI-H1793 = system: NCI-H1793
Procedure, shortened: as §1

NCI-H2023 = system: NCI-H2023
Procedure, shortened: as §1

NCI-H2170 = system: NCI-H2170
Procedure, shortened: as §1

Nc1ccn([C@@H]2O[C@H](CO)[C@@H](O)[C@@H]2O)c(=O)n1 [Cytarabine] + O=C(CCCCCCC(=O)Nc1ccccc1)NO [Vorinostat] (partner 1 µM)
relative viability (201T; first compound 0.005 µM): 0.978
relative viability (201T; first compound 0.01581 µM): 1.03
relative viability (201T; first compound 0.05 µM): 1
relative viability (201T; first compound 0.1581 µM): 0.994
relative viability (201T; first compound 0.5 µM): 0.937
relative viability (COR-L23; first compound 0.005 µM): 0.376
relative viability (COR-L23; first compound 0.01581 µM): 0.404
relative viability (COR-L23; first compound 0.05 µM): 0.304
relative viability (COR-L23; first compound 0.1581 µM): 0.136
relative viability (EPLC-272H; first compound 0.005 µM): 0.461
relative viability (EPLC-272H; first compound 0.01581 µM): 0.393
relative viability (EPLC-272H; first compound 0.05 µM): 0.398
relative viability (EPLC-272H; first compound 0.1581 µM): 0.174
relative viability (EPLC-272H; first compound 0.5 µM): 0.155
relative viability (H3255; first compound 0.005 µM): 0.862
relative viability (H3255; first compound 0.01581 µM): 0.853
relative viability (H3255; first compound 0.05 µM): 0.655
relative viability (H3255; first compound 0.1581 µM): 0.608
relative viability (H3255; first compound 0.5 µM): 0.878
relative viability (HCC-15; first compound 0.005 µM): 0.856
relative viability (HCC-15; first compound 0.01581 µM): 0.784
relative viability (HCC-15; first compound 0.05 µM): 0.775
relative viability (HCC-15; first compound 0.1581 µM): 0.676
relative viability (HCC-15; first compound 0.5 µM): 0.647
relative viability (LOU-NH91; first compound 0.005 µM): 0.857
relative viability (LOU-NH91; first compound 0.01581 µM): 0.917
relative viability (LOU-NH91; first compound 0.05 µM): 0.806
relative viability (LOU-NH91; first compound 0.1581 µM): 0.772
relative viability (LOU-NH91; first compound 0.5 µM): 0.676
relative viability (NCI-H1650; first compound 0.005 µM): 0.563
relative viability (NCI-H1650; first compound 0.01581 µM): 0.514
relative viability (NCI-H1650; first compound 0.05 µM): 0.261
relative viability (NCI-H1650; first compound 0.1581 µM): 0.241
relative viability (NCI-H1650; first compound 0.5 µM): 0.226
relative viability (NCI-H1734; first compound 0.005 µM): 0.493
relative viability (NCI-H1734; first compound 0.01581 µM): 0.361
relative viability (NCI-H1734; first compound 0.05 µM): 0.317
relative viability (NCI-H1734; first compound 0.1581 µM): 0.138
relative viability (NCI-H1734; first compound 0.5 µM): 0.125
relative viability (NCI-H1793; first compound 0.005 µM): 0.631
relative viability (NCI-H1793; first compound 0.01581 µM): 0.607
relative viability (NCI-H1793; first compound 0.05 µM): 0.643
relative viability (NCI-H1793; first compound 0.1581 µM): 0.352
relative viability (NCI-H1793; first compound 0.5 µM): 0.186
relative viability (NCI-H2023; first compound 0.005 µM): 0.434
relative viability (NCI-H2023; first compound 0.01581 µM): 0.225
relative viability (NCI-H2023; first compound 0.05 µM): 0.22
relative viability (NCI-H2023; first compound 0.1581 µM): 0.101
relative viability (NCI-H2023; first compound 0.5 µM): 0.0846
relative viability (NCI-H2170; first compound 0.005 µM): 0.823
relative viability (NCI-H2170; first compound 0.01581 µM): 0.65
relative viability (NCI-H2170; first compound 0.05 µM): 0.621
